Assay [1] concerns PC3 and DU145 cells. Put plainly: Invasion assay (Matrigel chambers). It is filed as cell-based, human. The following applies: 10 μM, 4 h in situ. The method, then:
(§1) Inhibitors were dissolved in DMSO and diluted into media or buffer prior to cell or proteome treatment, respectively. For in vitro treatment, final DMSO concentration was 4%. For in situ treatments of cells for ABPP, lipid measurements, migration, cell-survival, and invasion assays, 2×10^6 cells were seeded in 6 cm dishes (˜100% confluency) 24 h prior to inhibitor pre-treatment (in DMSO at 0.1% final concentration) in serum-free media (3 mL) for the designated time before harvesting cells for ABPP or lipid measurements or before the initiation of migration, cell-survival, and invasion assays.
(§2) Cell migration, cell survival, and invasion studies were performed as previously described (Nomura et al., 2010). Briefly, migration assays were performed in Transwell chambers (Corning) with 8 μm pore-sized membranes coated with 10 μg/mL collagen at 37° C. for LNCaP (24 h), PC3 (4 h) and DU145 cells (24 h), respectively. Cell survival assays were performed using the Cell Proliferation Reagent WST-1 (Roche) Invasion assays were conducted using the BD Matrigel Invasion Chambers per the manufacturer's protocol. Inhibitors were preincubated for the stated duration before seeding cells into migration, cell-survival, or invasion chambers. Prior to seeding the cells in these chambers, cells were serum-starved for 4 h. Inhibitors were also present during the migration, cell-survival, and invasion assays.

The subject of assay [2] is MAGE levels in PC3 and DU145 cells. The assay can be described thus: Lipid (MAGE) measurements in cancer cells. It is filed as cell-based, human. Particulars: 10 μM, 4 h in situ. As to the method:
as §1
Lipid measurements were performed in cancer cells as previously described (Chiang et al., 2006). Briefly, frozen cell pellets from cells harvested after 4 h serum starvation were extracted in 2:1:1 chloroform:methanol:Tris buffer pH 8.0 by dounce homogenization with 10 nmol of internal standard C12 MAGE. The organic layer was removed, dried under N2, and resuspended in 120 μL of chloroform, and 30 μL was injected into an Agilent 1100-MSD LC-MS. MAGE levels were quantified by measuring the area under the peak and were normalized to the C12 MAGE internal standard.

Assay [3] deals with PC3 and DU145 cells. The assay can be described thus: Serum-free cell survival assay (WST-1). The class given is cell-based, human. Particulars: 10 μM, 4 h in situ. As to the method:
as §1, §2
In general terms: Formazan colour is commonly taken as a measure of viable cells.

The target in the next assay is T1, KIAA1363 (Mus musculus, UniProt Q8BLF1).
T1 construct: ABPP analysis of KIAA1363 activity in mouse brain membrane proteome; from tissue; host or cells: mouse brain (membrane fraction)
T1 sequence (Q8BLF1 1-408): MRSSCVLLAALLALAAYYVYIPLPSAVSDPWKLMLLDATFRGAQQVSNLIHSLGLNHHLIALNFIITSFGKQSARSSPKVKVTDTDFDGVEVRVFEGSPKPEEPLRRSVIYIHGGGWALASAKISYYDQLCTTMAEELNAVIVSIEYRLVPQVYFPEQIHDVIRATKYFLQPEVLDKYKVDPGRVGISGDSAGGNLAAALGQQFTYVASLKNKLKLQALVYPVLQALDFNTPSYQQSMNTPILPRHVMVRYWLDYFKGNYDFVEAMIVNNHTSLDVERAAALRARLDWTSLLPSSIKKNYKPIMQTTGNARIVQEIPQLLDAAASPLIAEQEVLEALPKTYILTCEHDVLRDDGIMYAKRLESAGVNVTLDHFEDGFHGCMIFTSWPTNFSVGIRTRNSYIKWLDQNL
Put plainly: Gel-based competitive ABPP of KIAA1363 in mouse brain membrane proteome (FP-rhodamine). It is filed as biochemical. The method, then:
In various embodiments, the invention provides a method of inhibiting a serine hydrolase, comprising contacting the hydrolase with a compound of formula (I), e.g., a compound selected from set of compounds shown in Table 1, below. […] IC50 values were derived from ABPP analysis of KIAA1363 activity in mouse brain membrane proteome and are averages of three replicates. Inhibitors were added to the proteome for 30 min before addition of FP-rhodamine (1 μM, 30 min).
Tissues were Dounce-homogenized in PBS, pH 7.4, followed by a low-speed spin (1,400 g, 5 min) to remove debris. The supernatant was then subjected to centrifugation (100,000×g, 45 min) to provide the cytosolic fraction in the supernatant and the unsoluble fraction as a pellet. The pellet was washed and resuspended in PBS buffer by sonication. Total protein concentration in each fraction was determined using a protein assay kit (Bio-Rad). Samples were stored at −80° C. until use.
For ABPP experiments, cell lysate and tissue proteomes were treated with 1 μM FP-rhodamine for 30 min at room temperature (50 μL total reaction volume) as described previously (Nomura et al., 2010). Reactions were quenched with one volume of standard 4×SDS/PAGE loading buffer (reducing), separated by SDS/PAGE (10% acrylamide), and visualized in-gel with a Hitachi FMBio IIe flatbed fluorescence scanner (MiraiBio). Inhibitors were preincubated prior (30 min or 4 h at 37° C. in vitro or in situ, respectively) to the addition of FP-rhodamine.

A further assay has as its target T2, AChE (Mus musculus, UniProt P21836).
T2 construct: 20 μg of cell lysate or mouse brain membrane proteome; from tissue; host or cells: mouse brain (membrane proteome)
T2 sequence (P21836 32-614): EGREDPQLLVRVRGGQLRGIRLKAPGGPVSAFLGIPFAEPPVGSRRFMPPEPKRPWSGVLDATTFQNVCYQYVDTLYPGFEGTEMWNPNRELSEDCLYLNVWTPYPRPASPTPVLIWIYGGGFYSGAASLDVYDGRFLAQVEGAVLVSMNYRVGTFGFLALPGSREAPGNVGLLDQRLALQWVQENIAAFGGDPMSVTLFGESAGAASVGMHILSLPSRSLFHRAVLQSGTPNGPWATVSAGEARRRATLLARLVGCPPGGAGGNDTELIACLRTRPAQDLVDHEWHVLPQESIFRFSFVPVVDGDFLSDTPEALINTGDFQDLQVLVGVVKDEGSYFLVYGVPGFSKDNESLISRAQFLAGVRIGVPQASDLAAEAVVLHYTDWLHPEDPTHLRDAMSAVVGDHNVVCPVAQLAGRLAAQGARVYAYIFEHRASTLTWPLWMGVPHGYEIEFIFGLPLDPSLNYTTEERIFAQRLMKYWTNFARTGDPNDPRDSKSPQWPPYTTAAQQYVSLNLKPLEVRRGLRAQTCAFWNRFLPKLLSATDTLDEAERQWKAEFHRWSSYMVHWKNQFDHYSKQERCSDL
Put plainly: AChE activity assay with acetylthiocholine in mouse brain proteome. The class given is biochemical. Particulars: acetylthiocholine hydrolysis in mouse brain membrane proteome. The method, then:
AChE activity was measured using a method similar to that described previously (Ellman et al., 1961). Briefly, 50 μL of 10 mM acetylthiocholine was added to 200 μL of PBS containing 2 mM DTNB and 20 μg of cell lysate or mouse brain membrane proteome. Absorbance was measured at 412 nm over 5 min, and the rate of product accumulation was calculated from the slope of the absorbance over time. For assays involving preincubation with inhibitors, the reactions were prepared without acetylthiocholine and JW480 was incubated at the indicated concentration for 30 min at 37° C. Acetylthiocholine was then added and the assay was carried out exactly as described above.

Setting [4] is: mouse brain membrane proteome, inhibitor 30 min before FP-rhodamine (1 μM, 30 min), averages of three replicates, read-out: IC50 (KIAA1363).
Where [5] appears, read: screened against KIAA1363, Table 1, read-out: IC50 values of less than 1 micromolar.
The mark [6] stands for this setting: screened against KIAA1363, Table 1, read-out: IC50 values of around 10 nanomolar (most potent).

Where two headings read alike, the source gives them in different places.

As for `CCCCOC[C@H]1CCCC[C@H]1COCCNC(=O)Oc1ccccc1F` [AS115, reference compound], the “PC3 and DU145 invasion” value in the assay on PC3 and DU145 cells [1] is given as “impair”. In assay [2], the MAGE levels entry is reported as “lower MAGE levels”. In addition, the “PC3 and DU145 serum-free cell survival” value in the assay with PC3 and DU145 cells [3] is recorded as “impair”.
The IC50 is the concentration needed to halve the response being measured. For the compound `COc1ccc(CCNC(=O)Oc2c(C)ccc3ccccc23)cc1` [JW436, 2-methylnaphthalen-1-yl 4-methoxyphenethylcarbamate], on KIAA1363 (setting [4]), the half-inhibitory concentration (IC50) was 3000 nM.
On to `COc1cccc(CCNC(=O)Oc2c(C)ccc3ccccc23)c1` [JW437, 2-methylnaphthalen-1-yl 3-methoxyphenethylcarbamate], for which the IC50 at KIAA1363 (setting [4]) is 209 nM; at KIAA1363 (setting [5]), less than 1000 nM.
On to `Cc1ccc2ccccc2c1OC(=O)NCCC(c1ccccc1)c1ccccc1` [JW438, 2-methylnaphthalen-1-yl (3,3-diphenylpropyl)carbamate], for which, at KIAA1363 (setting [4]), the half-maximal inhibitory concentration (IC50) is more than 50000 nM.
On to `Cc1ccc2ccccc2c1OC(=O)NCC(c1ccccc1)c1ccccc1` [JW439, 2-methylnaphthalen-1-yl (2,2-diphenylethyl)carbamate], for which the IC50 on KIAA1363 (setting [4]) was more than 50000 nM.
On to `CCOc1ccccc1OC(=O)NCCc1ccc(OC)cc1` [JW441, 2-ethoxyphenyl 4-methoxyphenethylcarbamate], for which the IC50 on KIAA1363 (setting [4]) is more than 10000 nM.
Regarding `CCOc1ccccc1OC(=O)NCCc1cccc(OC)c1` [JW442, 2-ethoxyphenyl 3-methoxyphenethylcarbamate], the IC50 at KIAA1363 (setting [4]) stood at 1010 nM.
On the same count and under the same terms, with `CCOc1ccccc1OC(=O)NCCC(c1ccccc1)c1ccccc1` [JW443, 2-ethoxyphenyl (3,3-diphenylpropyl)carbamate] the figure was 1830 nM.
On to `CCOc1ccccc1OC(=O)NCC(c1ccccc1)c1ccccc1` [JW444, 2-ethoxyphenyl (2,2-diphenylethyl)carbamate], for which, on KIAA1363 (setting [4]), the IC50 stood at 1050 nM.
Same read-out and setting: to `O=C(NCCc1ccc(C(F)(F)F)cc1)Oc1ccc(-n2cccc2)cc1` [JW446, 4-(1H-pyrrol-1-yl)phenyl 4-(trifluoromethyl)phenethylcarbamate] belongs more than 50000 nM; to `Cc1ccc2ccccc2c1OC(=O)NCCc1ccc(C(F)(F)F)cc1` [JW447, 2-methylnaphthalen-1-yl 4-(trifluoromethyl)phenethylcarbamate], 858 nM.
With `CCOc1ccccc1OC(=O)NCCc1ccc(C(F)(F)F)cc1` [JW448, 2-ethoxyphenyl 4-(trifluoromethyl)phenethylcarbamate], the IC50 at KIAA1363 (setting [4]) was 293 nM; on KIAA1363 (setting [5]), less than 1000 nM.
Turning to `CC(C)c1ccccc1OC(=O)NCCc1ccc(F)cc1` [JW464, 2-isopropylphenyl 4-fluorophenethylcarbamate], on AChE, the “Cross-reactivity with AChE” value was “cross-reactivity”. For the same compound, the IC50 was 11.3 nM at KIAA1363 (setting [4]) and approximately 10 nM on KIAA1363 (setting [6]).
For the compound `COc1ccc(OC(=O)NCCc2ccc(F)cc2)c2ccccc12` [JW465, 4-methoxynaphthalen-1-yl 4-fluorophenethylcarbamate], the IC50 at KIAA1363 (setting [4]) is more than 50000 nM.
In the case of `Cc1ccc(C(C)C)c(OC(=O)NCCc2ccc(F)cc2)c1` [JW466, 2-isopropyl-5-methylphenyl 4-fluorophenethylcarbamate], the values for the IC50 at KIAA1363 (setting [4]) and on KIAA1363 (setting [5]) were 197 nM and less than 1000 nM, respectively.
On to `C=CCc1ccccc1OC(=O)NCCc1ccc(F)cc1` [JW468, 2-allylphenyl 4-fluorophenethylcarbamate], for which the 50% inhibitory concentration (IC50) on KIAA1363 (setting [4]) is 94.3 nM.
Still for that read-out and setting: to `CN(C)c1cccc(OC(=O)NCCc2ccc(F)cc2)c1` [JW469, 3-(dimethylamino)phenyl 4-fluorophenethylcarbamate] belongs 5160 nM.
In the case of `O=C(NCCc1ccc(F)cc1)Oc1ccc(C2CCCCC2)cc1` [JW472, 4-cyclohexylphenyl 4-fluorophenethylcarbamate], the results for the IC50 at KIAA1363 (setting [4]) and at KIAA1363 (setting [5]) were 119 nM and less than 1000 nM, respectively.
For `O=C(NCCc1ccc(F)cc1)Oc1ccc(-c2ccccc2)cc1` [JW473, [1,1′-biphenyl]-4-yl 4-fluorophenethylcarbamate], the IC50 on KIAA1363 (setting [4]) was 955 nM; at KIAA1363 (setting [5]), less than 1000 nM.
Regarding `O=C(NCCc1ccc(F)cc1)Oc1ccc(C2CCCC2)cc1` [JW474, 4-cyclopentylphenyl 4-fluorophenethylcarbamate], the IC50 on KIAA1363 (setting [4]) is 795 nM.
On the same count and under the same terms, with `COc1cccc(OC(=O)NCCc2ccc(F)cc2)c1OC` [JW477, 2,3-dimethoxyphenyl 4-fluorophenethylcarbamate] the figure was more than 10000 nM.
In the case of `CC(C)c1ccccc1OC(=O)NCCc1ccc2c(c1)OCO2` [JW481, 2-isopropylphenyl (2-(benzo[d][1,3]dioxol-5-yl)ethyl)carbamate], the IC50 on KIAA1363 (setting [4]) was 11.3 nM; on KIAA1363 (setting [6]), approximately 10 nM.
With `CC(C)c1ccccc1OC(=O)NCCc1ccc(C(F)(F)F)cc1` [JW482, 2-isopropylphenyl 4-(trifluoromethyl)phenethylcarbamate], the IC50 at KIAA1363 (setting [4]) was 9.4 nM; on KIAA1363 (setting [6]), approximately 10 nM.

The record behind these values is patent US9249128B2 (priority 2010, dated 2016).
